Measurements from patent publication US11370771B2, “Inhibitors of TRPC6” (Boehringer Ingelheim International GmbH, priority 2018, dated 2022).

How the values were obtained:
PASMC = settings: cited from earlier work
TRPC6 = settings: lung tissue of IPAH patients; cited from earlier work
human TRPC6 = target: T1, human TRPC6 (Homo sapiens, UniProt Q9Y210); test: High Throughput Screening Assay Method 1 (FLIPR membrane potential dye, OAG activation, HEK293 cells expressing human TRPC6); assay type: cell-based; settings: antagonist effect against human TRPC6, 60 μM OAG, read-out: Fluorescence TRPC6 IC50
T1 construct: expressed in transfected cells
T1 sequence (Q9Y210 1-931): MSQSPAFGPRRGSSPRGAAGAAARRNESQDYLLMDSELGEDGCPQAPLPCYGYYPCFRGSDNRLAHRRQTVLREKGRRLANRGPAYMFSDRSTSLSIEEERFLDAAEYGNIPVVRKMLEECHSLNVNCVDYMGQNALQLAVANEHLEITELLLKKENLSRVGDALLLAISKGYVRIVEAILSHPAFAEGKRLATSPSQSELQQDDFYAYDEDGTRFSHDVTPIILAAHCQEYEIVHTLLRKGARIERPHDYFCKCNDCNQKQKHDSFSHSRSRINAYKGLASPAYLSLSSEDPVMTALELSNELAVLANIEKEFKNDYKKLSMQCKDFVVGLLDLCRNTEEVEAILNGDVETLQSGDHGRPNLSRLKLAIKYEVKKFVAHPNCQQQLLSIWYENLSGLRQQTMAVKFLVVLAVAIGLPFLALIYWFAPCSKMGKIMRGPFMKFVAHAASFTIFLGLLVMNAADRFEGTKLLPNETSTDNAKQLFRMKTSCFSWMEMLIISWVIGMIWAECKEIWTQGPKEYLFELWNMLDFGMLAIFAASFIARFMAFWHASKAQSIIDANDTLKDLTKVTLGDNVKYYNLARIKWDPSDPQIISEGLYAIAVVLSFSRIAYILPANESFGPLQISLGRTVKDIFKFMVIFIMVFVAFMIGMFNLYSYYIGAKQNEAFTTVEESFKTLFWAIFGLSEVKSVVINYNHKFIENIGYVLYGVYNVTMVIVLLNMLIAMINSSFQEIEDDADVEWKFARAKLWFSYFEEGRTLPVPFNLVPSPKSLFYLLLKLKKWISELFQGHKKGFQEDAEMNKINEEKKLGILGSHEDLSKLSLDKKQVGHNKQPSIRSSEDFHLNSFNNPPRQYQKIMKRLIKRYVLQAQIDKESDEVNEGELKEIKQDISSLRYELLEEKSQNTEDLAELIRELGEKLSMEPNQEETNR
Description: This screening assay measures TRPC6 (transient receptor potential cation channel, subfamily C, member 6) ion channel activation via addition either of the commercially available DAG ligand analogue OAG (1-oleoyl-2-acetyl-sn-glycerol) or of the TRPC6 agonist 1-[1-(4,5,6,7,8-pentahydrocyclohepta[2,1-d]thiophen-2-ylcarbonyl)-4-piperidyl]-3-hydrobenzimidazol-2-one (GSK1702934A). The assay utilizes a FLIPR membrane potential (FMP) dye from Molecular Devices, which is a voltage sensitive indicator with a fluorescent quencher. Changes in membrane potential as measured by the fluorescent signal increase during membrane depolarization provide a measurement of channel activity.
The commercially available HEK293 cell line expressing human TRPC6 channel (Axxam/PerkinElmer) is scaled up in bulk and frozen in liquid nitrogen. Frozen cell stocks are thawed and re-suspended in culture media as recommended by the manufacturer supplemented with 0.5 mg/ml of geneticin to promote retention of the TRPC6 construct. Cells are plated at a density of 15,000 cells/well in Greiner 384 well poly-D-lysine coated black clear bottom plates, and incubated for 18-20 h at 37° C. and 5% CO2. To initiate the assay, the growth media is removed using a plate washer and 25 ul of a FMP dye mix is added to each well. The 4× stock FMP dye from the manufacturer is diluted 1× with assay buffer (low calcium Tyrode's assay buffer: 130 mM NaCl, 5 mM KCl, 0.15 mM CaCl2), 1 mM MgCl2, 5 mM NaHCO3, 20 mM HEPES pH 7.4) containing 36 μM BAPTA/AM. The cells are incubated at room temperature (19-22° C.) for 30 minutes. For the screening assay, 5 uL of diluted compound stock is added to each well and incubated for 15 minutes at room temperature (19-22° C.). Using the Hamamatsu FDSS6000 or FDSS7000, 10 uL of the synthetic, membrane permeant analog of 1,2 diacylglycerol (DAG), 1-oleoyl-2-acetoyl-n-glycerol (OAG), is added and fluorescent readings taken every second from 50 seconds to 3 minutes. […] Controls and blanks consisted of HEK293 TRPC6 cells that are exposed to OAG. A reference inhibitor added along with the test compound is included as part of the blanks. This inhibitor suppresses the TRPC6 channel activation. These controls set the screening window, and “hits” are defined as those compounds inhibiting the membrane depolarization caused by OAG by at least 50%. IC50 values are determined for compounds that meet these criteria by titrating compound stock at a final starting concentration of 30 μM using a 3-fold serial dilution for 11 points. Curves are generated by fitting each data set to a four-parameter logistic equation using nonlinear regression.

| Compound | IC50 (human TRPC6) | proliferation of PASMC (PASMC) | expression of TRPC6 (TRPC6) |
| --- | --- | --- | --- |
| COc1ccccc1Oc1c(NS(=O)(=O)c2ccc(C(C)(C)C)cc2)nc(-c2ncccn2)nc1OCCO [bosentan] | – | decreases proliferation | decreases expression of TRPC6 |
| Nc1ccc(N2CCN(C(=O)c3ccc(Oc4ccccc4)cc3)CC2)cn1 [Compound 15, 5-[4-(4-phenoxybenzoyl)piperazin-1-yl]pyridin-2-amine] | 422 nM | – | – |
| Nc1ccc(C2CCN(C(=O)c3ccc(Oc4ccc(C(F)(F)F)cc4)cc3)CC2)nn1 [Compound 2, 6-(1-{4-[4-(trifluoromethyl)phenoxy]benzoyl}piperidin-4-yl)pyridazin-3-amine] | 504 nM | – | – |

More lines, main results first:

| IC50 (human TRPC6) | Compound | proliferation of PASMC (PASMC) | expression of TRPC6 (TRPC6) |
| --- | --- | --- | --- |
| 1160 nM | CCc1ccc(Oc2ccc(C(=O)N3CCN(c4ccc(N)nn4)CC3)cc2)cc1 [Compound 20, 6-{4-[4-(4-ethylphenoxy)benzoyl]piperazin-1-yl}pyridazin-3-amine] | – | – |
| 324 nM | CCc1ccc(Oc2ccc(C(=O)N3CCN(c4ccc(N)nc4)CC3)cc2)cc1 [Compound 14, 5-{4-[4-(4-ethylphenoxy)benzoyl]piperazin-1-yl}pyridin-2-amine] | – | – |
| 4670 nM | N#Cc1ccc(Oc2ccc(C(=O)N3CCN(c4ccc(N)nn4)CC3)cc2)cc1 [Compound 7, 4-{4-[4-(6-aminopyridazin-3-yl)piperazine-1-carbonyl]phenoxy}benzonitrile] | – | – |
